ChEMBL document CHEMBL1201862, “PubChem BioAssay data set” (2004)
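48-hour exposure; five concentrations; linearly interpolated endpoints. GI50 is the concentration that inhibits growth by half.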 Activity calls are given as the source filed them. Rule as the data show it: active = GI50 up to about 1.1 µM and inactive = higher.

Columns and labels:
Assay in all cases: inhibition of tumour cell growth, NCI panel, 48 h
HCC 2998 = system: HCC 2998
HL-60 = system: HL-60
SK-OV-3 = system: SK-OV-3
RXF 393 = system: RXF 393
UACC-62 = system: UACC-62
OVCAR-8 = system: OVCAR-8
SW-620 = system: SW-620
KM12 = system: KM12
Hs-578T = system: Hs-578T
RPMI-8226 = system: RPMI-8226
HT-29 = system: HT-29
SF-268 = system: SF-268
OVCAR-3 = system: OVCAR-3
A549 = system: A549
786-0 = system: 786-0
OVCAR-4 = system: OVCAR-4
BT-549 = system: BT-549
Malme-3M = system: Malme-3M
UO-31 = system: UO-31

Measured: GI50

Oc1c(Cl)cc2cc1-c1cc(cc(Cl)c1O)CCc1c(cc(Cl)c(O)c1Cl)-c1cc(Cl)c(c(Cl)c1O)/C=C\2
inactive: HCC 2998 6.98 µM | HL-60 5.61 µM | SK-OV-3 9.16 µM | RXF 393 15.2 µM | UACC-62 8.69 µM | OVCAR-8 7.91 µM | SW-620 9.44 µM | KM12 7.76 µM | Hs-578T 11.1 µM | RPMI-8226 22.1 µM | HT-29 11.4 µM | SF-268 8.43 µM | OVCAR-3 7.4 µM | A549 10.6 µM | 786-0 8.36 µM | OVCAR-4 9.04 µM | BT-549 16 µM

CC(=O)c1c2c(cc3c1CCC3)CCC2
inactive: HCC 2998 > 100 µM | HL-60 > 100 µM | SK-OV-3 > 100 µM | Malme-3M > 100 µM | UACC-62 > 100 µM | OVCAR-8 > 100 µM | SW-620 > 100 µM | KM12 > 100 µM | Hs-578T 76.6 µM | RPMI-8226 76 µM | HT-29 > 100 µM | SF-268 > 100 µM | OVCAR-3 > 100 µM | A549 > 100 µM | 786-0 > 100 µM | OVCAR-4 69.7 µM | UO-31 54.5 µM | BT-549 > 100 µM

Nc1csc(-c2scc3c2OCCO3)c1N
inactive: HCC 2998 22.4 µM | HL-60 20.5 µM | Malme-3M 16 µM | RXF 393 17.9 µM | UACC-62 14.4 µM | OVCAR-8 16.1 µM | SW-620 26.2 µM | KM12 20.4 µM | Hs-578T 27.8 µM | RPMI-8226 16.9 µM | HT-29 20.7 µM | SF-268 18.8 µM | OVCAR-3 14.8 µM | A549 21.4 µM | 786-0 17.3 µM | OVCAR-4 26.6 µM | UO-31 17.9 µM | BT-549 16.5 µM

O=P1(c2ccccc2)c2ccccc2-c2ccccc21
inactive: HCC 2998 > 100 µM | HL-60 66.1 µM | SK-OV-3 > 100 µM | RXF 393 93.8 µM | UACC-62 82.2 µM | OVCAR-8 > 100 µM | SW-620 > 100 µM | KM12 > 100 µM | Hs-578T > 100 µM | RPMI-8226 74.1 µM | SF-268 > 100 µM | OVCAR-3 71 µM | A549 > 100 µM | 786-0 > 100 µM | UO-31 > 100 µM | BT-549 65.2 µM

CCOC(=O)c1nc2cc(C(F)(F)F)ccc2nc1Oc1ccc(C#N)cc1
inactive: HCC 2998 80 µM | HL-60 71.8 µM | Malme-3M > 100 µM | RXF 393 19.1 µM | UACC-62 > 100 µM | OVCAR-8 > 100 µM | SW-620 > 100 µM | KM12 > 100 µM | Hs-578T > 100 µM | RPMI-8226 54.3 µM | SF-268 > 100 µM | OVCAR-3 > 100 µM | A549 > 100 µM | 786-0 > 100 µM | OVCAR-4 > 100 µM | UO-31 > 100 µM | BT-549 > 100 µM

CC(O)C(O)C(O)C(/C=N\Nc1ccccc1)=N/Nc1ccccc1 (configuration not stated)
inactive: HCC 2998 10.8 µM | HL-60 12.6 µM | SK-OV-3 15.6 µM | Malme-3M 20 µM | UACC-62 10 µM | OVCAR-8 13.2 µM | SW-620 11.6 µM | KM12 4.7 µM | Hs-578T 11 µM | RPMI-8226 18.3 µM | HT-29 15.9 µM | SF-268 10.2 µM | OVCAR-3 8.55 µM | A549 11.4 µM | 786-0 14.2 µM | UO-31 12.2 µM | BT-549 13.7 µM

O=C1CCCC2=C1CC1=C(CCCC1=O)N2c1ccccc1C(=O)O
inactive: HCC 2998 > 100 µM | HL-60 > 100 µM | SK-OV-3 > 100 µM | RXF 393 > 100 µM | UACC-62 > 100 µM | OVCAR-8 > 100 µM | SW-620 > 100 µM | KM12 > 100 µM | Hs-578T > 100 µM | RPMI-8226 > 100 µM | HT-29 > 100 µM | SF-268 > 100 µM | OVCAR-3 > 100 µM | A549 > 100 µM | 786-0 > 100 µM | OVCAR-4 > 100 µM | UO-31 > 100 µM | BT-549 > 100 µM

c1ccc2c(c1)OC(N1CCCC1)c1cnc(N3CCCC3)nc1-2 (configuration not stated)
inactive: HL-60 27.4 µM | SK-OV-3 44.1 µM | Malme-3M 40.7 µM | RXF 393 20.3 µM | UACC-62 50.7 µM | OVCAR-8 51.3 µM | SW-620 36.3 µM | KM12 41.3 µM | Hs-578T 30.5 µM | RPMI-8226 20.7 µM | HT-29 36.2 µM | SF-268 29.4 µM | OVCAR-3 22.9 µM | A549 43.4 µM | 786-0 40.3 µM | OVCAR-4 36.2 µM | UO-31 24.3 µM | BT-549 21.2 µM

c1ccc([P+](CCSCCSCC[P+](c2ccccc2)(c2ccccc2)c2ccccc2)(c2ccccc2)c2ccccc2)cc1
inactive: HCC 2998 > 100 µM | HL-60 > 100 µM | SK-OV-3 > 100 µM | RXF 393 > 100 µM | UACC-62 64.4 µM | OVCAR-8 > 100 µM | SW-620 > 100 µM | KM12 > 100 µM | Hs-578T > 100 µM | HT-29 > 100 µM | SF-268 > 100 µM | OVCAR-3 > 100 µM | A549 > 100 µM | 786-0 > 100 µM | OVCAR-4 > 100 µM | UO-31 > 100 µM | BT-549 > 100 µM

O=C(/C=C/c1ccc(O)c(O)c1)Oc1ccccc1
inactive: HCC 2998 18.6 µM | HL-60 1.61 µM | SK-OV-3 45.6 µM | RXF 393 8.71 µM | UACC-62 13.2 µM | OVCAR-8 12.7 µM | SW-620 12.6 µM | KM12 9.29 µM | Hs-578T 14.2 µM | RPMI-8226 3.17 µM | HT-29 11.3 µM | SF-268 7.59 µM | OVCAR-3 6.98 µM | A549 15.3 µM | 786-0 10.6 µM | OVCAR-4 15.2 µM | UO-31 7.43 µM | BT-549 14.9 µM

O=c1c(O)c(-c2cc(O)c(O)c(O)c2)oc2cc(O)cc(O)c12 [MYRICETIN]
inactive: HL-60 56.6 µM | SK-OV-3 > 100 µM | Malme-3M > 100 µM | RXF 393 20.8 µM | UACC-62 39.5 µM | OVCAR-8 17.9 µM | SW-620 19.5 µM | KM12 17.7 µM | Hs-578T 40.9 µM | RPMI-8226 36.1 µM | HT-29 20.3 µM | SF-268 44.2 µM | OVCAR-3 30.6 µM | A549 33.8 µM | 786-0 20.1 µM | OVCAR-4 16.3 µM | UO-31 90.8 µM | BT-549 32.6 µM
